# Legend:
# [1] = test system: HL-60 cells; experiment: Cell growth inhibition (ATPlite), HL-60; format: cell-based, human; conditions: HL-60, 72 hours
# Protocol: (§1) The human acute promyelocytic leukemia cell line HL-60, the acute myeloid leukemia cell line Kasumi-1, the lung carcinoma cell line A549, the embryonic kidney cell line HEK293, and the hepatocellular carcinoma cell line HepG2 were purchased from ATCC. HL-60 and A549 cells were grown in RPMI-1640 media containing 10% fetal bovine serum (FBS). Kasumi-1 cells were grown in RPMI-1640 media containing 20% FBS. HEK293 and HepG2 cells were grown in Eagles Minimal Essential Media containing 10% FBS. Cells were plated in 96-well microtiter plates at a density of either 2000 cells/well (A549 cells) or 5000 cells/well and incubated overnight at 37° C. Cell growth was measured by the ATPlite™ istep Kit (PerkinElmer, Waltham, Mass.) according to the manufacturer's instructions. ATPlite™ uses firefly luciferase to indirectly quantify the level of adenosine triphosphate (ATP) as a measure of proliferation and cytotoxicity of cultured mammalian cells. […] Luminescence, quantified as relative luciferase units (RLU), was measured on an Envision plate reader (PerkinElmer). For each replicate, the mean and standard deviation of the RLU at each concentration of compound was calculated. […]
# HL-60 cells were plated in 96-well microtiter plates in RPMI-1640 media containing 10% FBS at a density of 5000 cells/well. […] Cell growth was measured using the ATPlite™ istep Kit. […]
# [2] = test system: Kasumi-1 cells; experiment: Cell growth inhibition (ATPlite), Kasumi-1; format: cell-based; conditions: Homo sapiens, Kasumi-1, 72 hours, mean±SEM, n = 3, read-out: Inhibition of Tumor Cell Growth (IC50, μM) Kasumi-1
# Protocol: as §1, with “cells. Compounds were diluted in the appropriate cell culture media for each cell type at incremental concentrations ranging from 0.1 nM to 100 tiM.” for “cells.”
# [3] = test system: A549 cells; experiment: Cell growth inhibition (ATPlite), A549; format: cell-based; conditions: Homo sapiens, A549, 72 hours, mean±SEM, n = 3, read-out: Inhibition of Tumor Cell Growth (IC50, μM) A549
# Protocol: as §1, with “cells. Compounds were diluted in the appropriate cell culture media for each cell type at incremental concentrations ranging from 0.1 nM to 100 tiM.” for “cells.”
# [4] = test system: HEK293 cells; experiment: Cell growth inhibition (ATPlite), HEK293; format: cell-based; conditions: Homo sapiens, HEK293, 72 hours, mean±SEM, n = 3, read-out: Inhibition of Tumor Cell Growth (IC50, μM) HEK293
# Protocol: as §1, with “cells. Compounds were diluted in the appropriate cell culture media for each cell type at incremental concentrations ranging from 0.1 nM to 100 tiM.” for “cells.”
# [5] = test system: HEPG2 cells; experiment: Cell growth inhibition (ATPlite), HEPG2; format: cell-based; conditions: Homo sapiens, HEPG2, 72 hours, mean±SEM, n = 3, read-out: Inhibition of Tumor Cell Growth (IC50, μM) HEPG2
# Protocol: as §1, with “cells. Compounds were diluted in the appropriate cell culture media for each cell type at incremental concentrations ranging from 0.1 nM to 100 tiM.” for “cells.”
# [6] = test system: HL-60 cells; experiment: Induction of apoptosis (Annexin V/Sytox Red, FACS); format: cell-based, human; conditions: HL-60, 10 μM, 48 hours, versus vehicle (DMSO), FIG. 2
# Protocol: HL-60 cells were incubated under similar conditions to the cell growth assay described above (i.e. 50,000 cell/well of a 24-well plate, incubated in cell culture media in the presence of vehicle or compound for 48 hours at 37° C. in an incubator with 5% CO2). Apoptosis was determined by using Annexin V/Sytox Red staining (Life Technologies/Invitrogen) followed by assaying with fluorescence-activated cell sorting (FACS) according to standard protocols. In this assay, vehicle constituted DMSO and the test compound (Compound 101) was diluted to 10 μM with cell culture media from a 10 mM stock solution of Compound 101 in DMSO. The results of the apoptosis assay are described in FIG. 2. […] Compound 101 decreased the number of viable cells in the assay by over 60% and produced nearly a 50% increase in necrotic cells and over a 15% increase in apoptotic cells.
# [7] = test system: Cynomolgus monkeys; experiment: Blood cell induction (peripheral blood neutrophils); format: in vivo
# Protocol: Test compound was evaluated in an animal model for the ability to increase blood cell count, and particularly peripheral blood neutrophils, according to the following protocol. A test compound (Compound 101) was formulated in DMSO:PEG400:PBS at a concentration of 2 mg/mL. Cynomolgus monkeys where then dosed with either vehicle or the test compound via an IV injection for three days. Doses were administered in the morning and then at 5, and 10 hours later. On Day four, a single dose was administered. Blood samples were then collected at the start of the experiment, at Day 4 at 3 hours, 6 hours, and 9 hours after the single dose, and at Day 7. Blood samples were collected and analyzed on a commercial hematology system (ADVIA 2120). The results for neutrophil evaluation are graphically represented in FIG. 3 for both vehicle and Compound 101.
smiles,measurement,setting,value
Cc1cc(C)cc(N2C(=O)/C(=C(\NNC(=O)CCC(N)=O)c3ccccc3)c3ccc(C(F)(F)F)cc32)c1 [Compound 101],"effect on HL-60 cell growth (dose response curve, FIG. 1)",[1]; versus Blank,dose-dependent effect
same,IC50,"[1]; Homo sapiens, mean±SEM, n = 5, read-out: Inhibition of Tumor Cell Growth (IC50, μM) HL-60",5 ± 2.8 µM
same,IC50,[2],12.1 ± 2.4 µM
same,IC50,[3],6.1 ± 2.5 µM
same,IC50,[4],1.4 ± 0.04 µM
same,IC50,[5],0.9 ± 0.1 µM
same,increase in apoptotic cells,[6],> 15%
same,increase in necrotic cells,[6],~50%
same,cytotoxicity at 10 µM,"[6]; Homo sapiens, read-out: decrease in number of viable cells",> 60%
same,neutrophil count following three days without dosing,[7]; Day 7 time point,returned to a level similar to the vehicle
same,significance of neutrophil count increase versus vehicle,"[7]; IV, Day 4, 9 hours after the single dose",statistically significant
same,neutrophil count versus vehicle after the three day dosing phase,"[7]; IV, three doses daily for three days, single dose Day 4, Day 4 samples, FIG. 3",higher neutrophil count than vehicle

# — US10420748B2, “Methods of treatment associated with the granulocyte colony-stimulating factor receptor” (LIGAND PHARMACEUTICALS INCORPORATED, priority 2013, dated 2019)
